System: IL-23
Test: IL-23 production (ELISA) in LPS-stimulated THP-1 cells, 2,4-D versus other chalcones, Example 2
Type: cell-based, human
Conditions: LPS-stimulated THP-1
Source text: Molecules tested. Natural 2,4-D, isolated and purified from Chloranthus spicatus (purity HPLC≥98%, Cat. No.: 129742-43-2), was purchased from BOC Science (Shirley, NY). Synthetic 2,4-D (purity HPLC≥98%) was obtained from YIWEI Biotech (Shanghai, China). 2′-hydroxychalcone (2′-HC, purity HPLC≥98%, Cat. No.: 42224-53-3), 4-hydroxychlcone (4-HC, purity HPLC≥98%, Cat. No.: 20426-12-4), 2′,2-dihydroxychalcone (2′,2-DHC, purity HPLC≥98%, Cat. No.: IDF00045_ALDRICH), 2′,3-dihydroxychalcone (2′,3-DHC, purity HPLC≥98%, Cat No.: IDF00047_ALDRICH), 2′,4-dihydroxychalcone (2′,4-DHC, purity HPLC≥98%, Cat. No.: PH011685_ALDRICH), 2′,5′-dihydroxychalcone (2′,5′-DHC, purity HPLC≥98%, No.: IDF00046-1G), and 2′,4′,4-trihydroxychalcone (2′,4′4-THC, purity HPLC≥98%, No.: 38986_SIAL) were purchased from Sigma. 2′,4′-dihydroxychalcone (2′,4′-DHC, purity HPLC≥98%, Cat. No. AB151736) was purchased from abcr GmbH (Karlsruhe, Germany). Isobavachalcone (IBC), 4′-hydroxy-2′6′-dimethoxychalcone (HMC), 2-trifluoromethyl-2′-methoxychalcone (TFM) and Hydroxysafflor yellow A (HYA) were also tested.
Cell culture. THP-1 cells were cultured in RPMI 1640 culture medium (Gibco) supplemented with 10% fetal bovine serum (FBS; Gibco, UK.), 0.05 mM 2-mercaptoethanol, and 1% penicillin/streptomycin. Cells were used in exponential growth phase, with culture medium being replaced with fresh medium 1 day prior to the experiment. The following day, THP-1 cells were plated into 24-well culture plates with a cell density about 800,000 cells/mL and 2 mL per well. 10 ng/mL LPS was used to stimulate the THP-1 cells. RPMI 1640 medium containing 10% FBS and 1% P/S was used as a normal control (NC). 10 mM stock solutions of compounds in DMSO were diluted to 20 μM with complete culture medium just before use. Experiments were performed in quadruplicate.
Enzyme linked immune-sorbent assay (ELISA). At 24 hours, after centrifugation at 300 g for 10 min., 0.5 mL of supernatant was collected and stored at −80° C. until use. IL-23 levels were determined in culture supernatants as described in Example 1.

## COc1cc(O)c(OC)c(O)c1C(=O)/C=C/c1ccccc1 [2,4-D, 2′,4′-dihydroxy-3′,6′-dimethoxychalcone]
  inhibition of IL-23, superiority over remaining compounds: 7,5- to 18 fold
